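Dose response: 5 concentrations. Exposure: 48 h. Format: 96-well plates. Endpoint: linear interpolation; highest concentration if not reached. GI50 is the concentration that inhibits growth by half. TGI: total growth inhibition.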 Where only a bound is given, the exact number is not on record here.

The test system of the first test is UACC-257 melanoma. The test is described as follows: inhibition of tumour cell growth, NCI panel, 48 h.
`CCOC(=O)NC(=O)c1cn(CCCO)c(=O)[nH]c1=O` gave a TGI greater than 100 µM.
The same measure, in the same setting: then `CCN1c2ccccc2C(C(SC)S(=O)(=O)c2ccc(C)cc2)c2c1[nH]c(=O)n(C)c2=O` (stereo not given), with greater than 100 µM.
Still for that read-out and setting: then `COc1ccc(S(=O)(=O)NNS(C)(=O)=O)cc1`, with greater than 100 µM; and `CC(=O)OC1COC(n2ccc3cc(Br)c([N+](=O)[O-])cc32)C(OC(C)=O)C1OC(C)=O` (stereo not given), with 52 µM.
Same read-out and setting: then `COc1cc(C2c3cc4c(cc3OC(C)(O)C2C)OCO4)cc(OC)c1OC` (stereo not given), with greater than 100 µM; and `Cn1cnc([N+](=O)[O-])c1Sc1nc2ccccc2[nH]1`, with 34.4 µM.
As for `O=C1c2cc3c(cc2-c2c1c1ccc(F)cc1c(=O)n2CCCNCCO)OCO3`, the GI50 is 0.123 µM and the TGI turned out to be 0.853 µM.
In the same order, the values of `COc1ccc([C@H]2[C@@H](F)C(=O)N2c2cc(OC)c(OC)c(OC)c2)cc1F` are greater than 100 µM and greater than 100 µM.
The molecule `CCCCCCCCC/C=C1\CCC(CN2CCOCC2)C1=O` (stereo not given) came in with a TGI of 10.7 µM.
On the same count and under the same terms, then `CCCCCCN(CCCCCC)C(=O)Cc1c2n(c3ccccc13)Cc1ccccc1-2`, with greater than 100 µM.
Regarding `CC(=O)[C@@]12O[C@@H]1CC1C3CCC4=CC(O)CCC4(C)C3CCC12C` (stereo not given in full), the GI50 was greater than 100 µM and the TGI was greater than 100 µM.
Regarding `C/C(=N\NC(=S)NC(CCC(=O)O)C(=O)O)c1ccccn1` (stereo not given), the TGI was greater than 100 µM.
On the same count and under the same terms, then `O=C(/C=C\c1ccc(Cl)c(Cl)c1)c1ccc(Cl)cc1Cl`, with 36.5 µM; and `CCOC(=O)C(=C=C=C(c1ccccc1)c1ccccc1)C(=O)OCC`, with 33.4 µM; and `Cn1c2ccccc2c2cc(-c3ccccc3)c3c(c21)C(=O)c1ccccc1C3=O`, with 42.9 µM.
Same read-out and setting: then `c1ccc(COc2cccc3ccc[n+](Cc4ccccc4)c23)cc1`, with 6.34 µM.
The same measure, in the same setting: then `CC1=CC(O)(c2ccc(-c3ccccc3Cl)cc2)OC1=O` (stereo not given), with greater than 100 µM; and `CCOC(=O)CC(=O)ON(C)C(C)=O`, with greater than 100 µM; and `CCc1cc(Cc2cc(CC)c(NC(=O)C(=O)Cc3ccccn3)c(CC)c2Cl)c(Cl)c(CC)c1NC(=O)C(=O)Cc1ccccn1`, with greater than 100 µM.
As for `CC(C)OP(=O)(OC(C)C)C(=NCCN=C(NNc1ccc([N+](=O)[O-])cc1)P(=O)(OC(C)C)OC(C)C)NNc1ccc([N+](=O)[O-])cc1`, the TGI is greater than 100 µM.
On the same count and under the same terms, then `O=S1(=O)OCCOS(=O)(=O)C1Br`, with greater than 100 µM.
On the same count and under the same terms, then `CC(C)=Cc1cc(C(=O)Nc2ccc(Cl)c(Cl)c2)nc(N)n1`, with greater than 100 µM.
On the same count and under the same terms, then `C#CC1(O)CCC2C3CCc4cc(Oc5nc(F)nc(-c6c7ccccc7c7sc8ccccc8n67)n5)ccc4C3CC[C@@]21C` (stereo not given in full), with greater than 100 µM; and `CC(=O)/C(=C\c1cccc([N+](=O)[O-])c1)C(=O)Nc1ccccc1C`, with greater than 100 µM; and `Clc1ccc(C(c2ccc(Cl)cc2)c2ccccn2)cc1`, with 37.9 µM.

The test system of the next test is UACC-62 melanoma. The test is described as follows: inhibition of tumour cell growth, NCI panel, 48 h.
As to `CCOC(=O)NC(=O)c1cn(CCCO)c(=O)[nH]c1=O`, the TGI is greater than 100 µM.
The same measure, in the same setting: then `CCN1c2ccccc2C(C(SC)S(=O)(=O)c2ccc(C)cc2)c2c1[nH]c(=O)n(C)c2=O` (stereo not given), with greater than 100 µM.
On the same count and under the same terms, then `COc1ccc(S(=O)(=O)NNS(C)(=O)=O)cc1`, with greater than 100 µM; and `Cc1cc(-c2ccc3nc(C4CCOCC4)n(CCOC(F)(F)F)c3c2)cn(C)c1=O`, with 2.06 µM.
The molecule `CC(=O)OC1COC(n2ccc3cc(Br)c([N+](=O)[O-])cc32)C(OC(C)=O)C1OC(C)=O` (stereo not given) displayed a TGI of 46.5 µM.
Consider `O=C1c2cc3c(cc2-c2c1c1ccc(F)cc1c(=O)n2CCCNCCO)OCO3`, for which the GI50 was 0.0281 µM and the TGI stood at 0.174 µM.
`CCCCCCCCC/C=C1\CCC(CN2CCOCC2)C1=O` (stereo not given) showed a TGI of 10.7 µM.
The same measure, in the same setting: then `CCCCCCN(CCCCCC)C(=O)Cc1c2n(c3ccccc13)Cc1ccccc1-2`, with greater than 100 µM.
Regarding `CC(=O)[C@@]12O[C@@H]1CC1C3CCC4=CC(O)CCC4(C)C3CCC12C` (stereo not given in full), the GI50 is greater than 100 µM and the TGI is greater than 100 µM.
In the case of `C/C(=N\NC(=S)NC(CCC(=O)O)C(=O)O)c1ccccn1` (stereo not given), the TGI was greater than 100 µM.
As to `O=C(/C=C\c1ccc(Cl)c(Cl)c1)c1ccc(Cl)cc1Cl`, the TGI worked out at 35.6 µM.
The same measure, in the same setting: then `CCOC(=O)C(=C=C=C(c1ccccc1)c1ccccc1)C(=O)OCC`, with 37.7 µM; and `Cn1c2ccccc2c2cc(-c3ccccc3)c3c(c21)C(=O)c1ccccc1C3=O`, with 30.1 µM.
For `c1ccc(COc2cccc3ccc[n+](Cc4ccccc4)c23)cc1`, the TGI worked out at 20.1 µM.
The molecule `CN(C)c1ccc(/C=C(\NC(=O)c2ccccc2)c2nc3ncncc3[nH]2)cc1` yielded a TGI greater than 100 µM.
Take `CC1=CC(O)(c2ccc(-c3ccccc3Cl)cc2)OC1=O` (stereo not given): the TGI is greater than 100 µM.
Same read-out and setting: then `CCOC(=O)CC(=O)ON(C)C(C)=O`, with greater than 100 µM; and `CCc1cc(Cc2cc(CC)c(NC(=O)C(=O)Cc3ccccn3)c(CC)c2Cl)c(Cl)c(CC)c1NC(=O)C(=O)Cc1ccccn1`, with greater than 100 µM; and `CC(C)OP(=O)(OC(C)C)C(=NCCN=C(NNc1ccc([N+](=O)[O-])cc1)P(=O)(OC(C)C)OC(C)C)NNc1ccc([N+](=O)[O-])cc1`, with 36.7 µM.
`COC(OC)C(C)CC(=O)N(C)C` (stereo not given) gave a TGI greater than 100 µM.
The same measure, in the same setting: then `O=S1(=O)OCCOS(=O)(=O)C1Br`, with greater than 100 µM.
Still for that read-out and setting: then `CC(C)=Cc1cc(C(=O)Nc2ccc(Cl)c(Cl)c2)nc(N)n1`, with greater than 100 µM; and `C#CC1(O)CCC2C3CCc4cc(Oc5nc(F)nc(-c6c7ccccc7c7sc8ccccc8n67)n5)ccc4C3CC[C@@]21C` (stereo not given in full), with greater than 100 µM.
Still for that read-out and setting: then `CC(=O)/C(=C\c1cccc([N+](=O)[O-])c1)C(=O)Nc1ccccc1C`, with greater than 100 µM; and `Clc1ccc(C(c2ccc(Cl)cc2)c2ccccn2)cc1`, with 33.4 µM.

The next test deals with TK-10 renal. The test is described as follows: inhibition of tumour cell growth, NCI panel, 48 h.
`CCOC(=O)NC(=O)c1cn(CCCO)c(=O)[nH]c1=O` gave a TGI greater than 100 µM.
`CCN1c2ccccc2C(C(SC)S(=O)(=O)c2ccc(C)cc2)c2c1[nH]c(=O)n(C)c2=O` (stereo not given): the TGI is greater than 100 µM.
On the same count and under the same terms, then `COc1ccc(S(=O)(=O)NNS(C)(=O)=O)cc1`, with greater than 100 µM; and `Cc1cc(-c2ccc3nc(C4CCOCC4)n(CCOC(F)(F)F)c3c2)cn(C)c1=O`, with 4.64 µM; and `CC(=O)OC1COC(n2ccc3cc(Br)c([N+](=O)[O-])cc32)C(OC(C)=O)C1OC(C)=O` (stereo not given), with 81.7 µM.
On the same count and under the same terms, then `Cn1cnc([N+](=O)[O-])c1Sc1nc2ccccc2[nH]1`, with 40.8 µM.
With `O=C1c2cc3c(cc2-c2c1c1ccc(F)cc1c(=O)n2CCCNCCO)OCO3`, the GI50 was 0.148 µM and the TGI was 0.487 µM.
For `COc1ccc([C@H]2[C@@H](F)C(=O)N2c2cc(OC)c(OC)c(OC)c2)cc1F`, in that order: 38.6 µM and greater than 100 µM.

The values above are taken from PubChem BioAssay (NCI).
